Patent US20240368173A1, “TRICYCLIC GPR65 MODULATORS” (PATHIOS THERAPEUTICS LIMITED, priority 2021, published 2024)

molecular target: human recombinant GPR65 (Homo sapiens, UniProt Q8IYL9); assay: Human GPR65 cAMP HTRF antagonist assay; assay type: cell-based; details: not given
Source text: In one preferred embodiment, the compound prevents the increase in cytoplasmic cAMP levels expected following GPR65 activation at acidic pH. This prevention of cAMP accumulation in turn prevents downstream signalling through ICER, as described above. The “Human GPR65 cyclic adenosine monophosphate (cAMP) Homogeneous Time Resolved Fluorescence (HTRF) antagonist assay”, or simply “cAMP assay”, as described in the accompanying examples, can be used to measure the potency of GPR65 modulators, which is expressed as the concentration of compound required to reduce the increase in cAMP concentration upon GPR65 activation by 50% (i.e. an IC50).
Human GPR65 Cyclic Adenosine Monophosphate (cAMP) Homogeneous Time Resolved Fluorescence (HTRF) Antagonist Assay Procedure
IC50 data was obtained by the following procedure:
1321N1 human astrocytoma cells stably expressing human recombinant GPR65 (1321N1-hrGPR65 cells, EuroscreenFast) were cultured according to the vendor's instructions.
Compounds were tested for their ability to antagonise GPR65, through measuring the concentration of cytoplasmic cAMP following treatment of the cells at a pH of 7.2 to activate GPR65 signalling and addition of the compound to be tested. The extent to which the expected rise in cAMP concentration upon GPR65 activation was suppressed by the added compound is indicative of its potency. The assay was carried out according to EuroscreenFast assay Methodology as follows.
On the day of the assay, test compounds were added to 384-well, low volume, white microtiter plates by acoustic dispensing. KRH buffer (5 mM KCl, 1.25 mM MgSO4, 124 mM NaCl, 25 mM HEPES, 13.3 mM Glucose, 1.25 mM KH2PO4 and 1.45 mM CaCl2) was adjusted to pH 6.5, pH 7.6 and pH 8.4 by adding NaOH. 1321N1-hGPR65 cells were rapidly thawed and diluted in KRH, pH 7.6 prior to centrifugation at 300×g for 5 min and resuspension in assay buffer (KRH, pH 7.6, supplemented with 1 mM 3-isobutyl-1-methylxanthine (IBMX) and 200 μM ethylenediaminetetraacetic acid (EDTA)). Cells were added to assay plates at a density of 2,000 cells per well in a volume of 5 μl. Assay plates were briefly centrifuged at 100×g and then incubated at room temperature for 30 min. Cells were stimulated by the addition of 5 μL KRH, pH 6.5, to achieve an assay pH of 7.2, while control wells received 5 μl KRH, pH 8.4 to achieve an assay pH of 7.9. Assay plates were briefly centrifuged at 100×g and then incubated at room temperature for 30 min.
Accumulation of cAMP was detected by cAMP HTRF kit (Cisbio). d2-labeled cAMP and cryptate-labeled anti-cAMP antibody in Lysis and Detection Buffer (Cisbio) were added to assay plates, and the plates were incubated at room temperature for 1 h. HTRF measurements were performed using a Pherastar FSX instrument. Acceptor and donor emission signals were measured at 665 nm and 620 nm, respectively, and HTRF ratios were calculated as signal665 nm/signal620 nm×10^4. Data were normalised to high and low control values and fitted with 4-parameter logistic regression to determine hGPR65 IC50 values for the test compounds, which are shown in Table 1.

Sequence of human recombinant GPR65 (Q8IYL9 whole entry): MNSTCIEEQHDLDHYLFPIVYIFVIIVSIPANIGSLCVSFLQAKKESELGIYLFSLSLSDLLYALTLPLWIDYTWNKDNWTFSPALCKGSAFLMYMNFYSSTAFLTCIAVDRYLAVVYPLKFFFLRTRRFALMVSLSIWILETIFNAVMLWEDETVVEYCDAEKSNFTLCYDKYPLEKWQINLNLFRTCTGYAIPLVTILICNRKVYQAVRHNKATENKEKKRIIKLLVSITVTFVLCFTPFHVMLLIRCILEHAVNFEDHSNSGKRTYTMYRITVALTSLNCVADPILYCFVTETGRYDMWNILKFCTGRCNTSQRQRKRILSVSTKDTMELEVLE

Compound | IC50 [µM]
O=C(Nc1cc(Cl)c(-c2ccc(OC3CCC3)nc2)cc1F)N1[C@H]2CC[C@@H]1c1c[nH]c(=O)cc1C2 [Compound 239, (6S,9R)-N-(5-Chloro-4-(6-cyclobutoxypyridin-3-yl)-2-fluorophenyl)-3-oxo-3,5,6,7,8,9-hexahydro-2H-6,9-epiminocyclohepta[c]pyridine-10-carboxamide] | < 0.5
O=C(Nc1cc(Cl)c(C(F)(F)F)cc1F)N1[C@@H]2CC[C@H]1[C@H](F)c1c2ccnc1F [Compound 193, (5R,8S,9R)-N-(5-Chloro-2-fluoro-4-(trifluoromethyl)phenyl)-1,9-difluoro-6,7,8,9-tetrahydro-5H-5,8-epiminocyclohepta[c]pyridine-10-carboxamide] | < 0.5
O=C(Nc1cc(Cl)c(Cl)cc1F)N1C2CCC1c1ccnnc1C2 (racemic) [Compound 84, (±)-N-(4,5-Dichloro-2-fluorophenyl)-6,7,8,9-tetrahydro-5H-5,8-epiminocyclohepta[c]pyridazine-10-carboxamide] | < 0.5
C=C1c2c(ccnc2F)C2CCC1N2C(=O)Nc1cc(Cl)c(Cl)cc1F (racemic) [Compound 154, (±)—N-(4,5-Dichloro-2-fluorophenyl)-1-fluoro-9-methylene-6,7,8,9-tetrahydro-5H-5,8-epiminocyclohepta[c]pyridine-10-carboxamide] | < 0.5
O=C(Nc1cc(Cl)c(COc2cncc(F)c2)cc1F)N1[C@H]2CC[C@@H]1c1n[nH]c(=O)cc1C2 [Compound 316, (6S,9R)-N-(5-Chloro-2-fluoro-4-(((5-fluoropyridin-3-yl)oxy)methyl)phenyl)-3-oxo-3,5,6,7,8,9-hexahydro-2H-6,9-epiminocyclohepta[c]pyridazine-10-carboxamide] | < 0.5
CNc1cnc(F)c2c1[C@H]1CC[C@@H](C2)N1C(=O)Nc1cc(Cl)c(Cl)cc1F [Compound 159, (5R,8S)—N-(4,5-dichloro-2-fluorophenyl)-1-fluoro-4-(methylamino)-6,7,8,9-tetrahydro-5H-5,8-epiminocyclohepta[c]pyridine-10-carboxamide] | < 0.5
COc1ncc(-c2cc(F)c(NC(=O)N3[C@H]4CC[C@@H]3c3c[nH]c(=O)cc3C4)cc2Cl)cc1F [Compound 217, (6S,9R)-N-(5-Chloro-2-fluoro-4-(5-fluoro-6-methoxypyridin-3-yl)phenyl)-3-oxo-3,5,6,7,8,9-hexahydro-2H-6,9-epiminocyclohepta[c]pyridine-10-carboxamide] | < 0.5
O=C(Nc1cc(Cl)c(-c2cncc(F)c2)cc1F)N1[C@H]2CC[C@@H]1c1n[nH]c(=O)cc1C2 [Compound 126, (6S,9R)-N-(5-Chloro-2-fluoro-4-(5-fluoropyridin-3-yl)phenyl)-3-oxo-3,5,6,7,8,9-hexahydro-2H-6,9-epiminocyclohepta[c]pyridazine-10-carboxamide] | < 0.5
COc1ncc(-c2cc(F)c(NC(=O)N3[C@H]4CC[C@@H]3c3ccnc(F)c3C4)cc2Cl)cc1F [Compound 219, (5R,8S)-N-(5-Chloro-2-fluoro-4-(5-fluoro-6-methoxypyridin-3-yl)phenyl)-1-fluoro-6,7,8,9-tetrahydro-5H-5,8-epiminocyclohepta[c]pyridine-10-carboxamide] | < 0.5
O=C(Nc1cc(C(F)(F)F)c(-c2ccc(F)nc2)cc1F)N1[C@H]2CC[C@@H]1c1n[nH]c(=O)cc1C2 [Compound 212, (6S,9R)-N-(2-Fluoro-4-(6-fluoropyridin-3-yl)-5-(trifluoromethyl)phenyl)-3-oxo-3,5,6,7,8,9-hexahydro-2H-6,9-epiminocyclohepta[c]pyridazine-10-carboxamide] | < 0.5
O=C(Nc1cc(Cl)c(-c2ccc3csnc3c2)cc1F)N1[C@H]2CC[C@@H]1c1n[nH]c(=O)cc1C2 [Compound 270, (6S,9R)-N-(4-(Benzo[c]isothiazol-6-yl)-5-chloro-2-fluorophenyl)-3-oxo-3,5,6,7,8,9-hexahydro-2H-6,9-epiminocyclohepta[c]pyridazine-10-carboxamide] | < 0.5
O=C(Nc1ccccc1)c1cc(F)c(NC(=O)N2[C@H]3CC[C@@H]2c2n[nH]c(=O)cc2C3)cc1Cl [Compound 231, (6S,9R)—N-(5-Chloro-2-fluoro-4-(phenylcarbamoyl)phenyl)-3-oxo-3,5,6,7,8,9-hexahydro-2H-6,9-epiminocyclohepta[c]pyridazine-10-carboxamide] | 0.5 to 5
O=C(Nc1cc(Cl)c(-c2cc(F)c3nonc3c2)cc1F)N1[C@H]2CC[C@@H]1c1n[nH]c(=O)cc1C2 [Compound 323, (6S,9R)-N-(5-Chloro-2-fluoro-4-(7-fluorobenzo[c][1,2,5]oxadiazol-5-yl)phenyl)-3-oxo-3,5,6,7,8,9-hexahydro-2H-6,9-epiminocyclohepta[c]pyridazine-10-carboxamide] | < 0.5
COCc1ccc(-c2cc(F)c(NC(=O)N3[C@H]4CC[C@@H]3c3n[nH]c(=O)cc3C4)cc2Cl)cn1 [Compound 278, (6S,9R)-N-(5-Chloro-2-fluoro-4-(6-(methoxymethyl)pyridin-3-yl)phenyl)-3-oxo-3,5,6,7,8,9-hexahydro-2H-6,9-epiminocyclohepta[c]pyridazine-10-carboxamide] | < 0.5
O=C(Nc1cc(Cl)c(F)cc1F)N1C2CCC1c1n[nH]c(=O)cc1C2 (racemic) [Compound 52, (±)-N-(5-Chloro-2,4-difluorophenyl)-3-oxo-3,5,6,7,8,9-hexahydro-2H-6,9-epiminocyclohepta[c]pyridazine-10-carboxamide] | < 0.5
O=C(Nc1cc(Cl)c(-c2ccncc2F)cc1F)N1[C@H]2CC[C@@H]1c1n[nH]c(=O)cc1C2 [Compound 138, (6S,9R)-N-(5-Chloro-2-fluoro-4-(3-fluoropyridin-4-yl)phenyl)-3-oxo-3,5,6,7,8,9-hexahydro-2H-6,9-epiminocyclohepta[c]pyridazine-10-carboxamide] | < 0.5
O=C(Nc1cc(Cl)c(C2CC2)cc1F)N1[C@H]2CC[C@@H]1c1ccnc(F)c1C2 [Compound 63, (5R,8S)-N-(5-Chloro-4-cyclopropyl-2-fluorophenyl)-1-fluoro-6,7,8,9-tetrahydro-5H-5,8-epiminocyclohepta[c]pyridine-10-carboxamide] | < 0.5
O=C(Nc1cc(Cl)c(Cl)cc1F)N1C2CCC1c1ncnc(F)c1C2 (racemic) [Compound 87, (±)—N-(4,5-Dichloro-2-fluorophenyl)-4-fluoro-6,7,8,9-tetrahydro-5H-6,9-epiminocyclohepta[d]pyrimidine-10-carboxamide] | < 0.5
CO[C@H]1C[C@@H](Oc2ccc(-c3cc(F)c(NC(=O)N4[C@H]5CC[C@@H]4c4c[nH]c(=O)cc4C5)cc3Cl)cn2)C1 [Compound 321, (6S,9R)-N-(5-Chloro-2-fluoro-4-(6-((1s,3S)-3-methoxycyclobutoxy)pyridin-3-yl)phenyl)-3-oxo-3,5,6,7,8,9-hexahydro-2H-6,9-epiminocyclohepta[c]pyridine-10-carboxamide] | < 0.5

same assay, conditions: 1321N1-hrGPR65 cells, cAMP HTRF, assay pH 7.2; read-out: hGPR65 IC50 (Activity of selected compounds according to the invention)

Compound | IC50 [µM]
O=C(Nc1ccc(OC(F)(F)F)c(Cl)c1)N1[C@@H]2CC[C@H]1c1n[nH]c(=O)cc1C2 [Compound 45, (6R,9S)-N-(3-Chloro-4-(trifluoromethoxy)phenyl)-3-oxo-3,5,6,7,8,9-hexahydro-2H-6,9-epiminocyclohepta[c]pyridazine-10-carboxamide] | > 5
COCCOc1cnc(F)c2c1[C@H]1CC[C@@H](C2)N1C(=O)Nc1cc(Cl)c(Cl)cc1F [Compound 283, (5R,8S)—N-(4,5-Dichloro-2-fluorophenyl)-1-fluoro-4-(2-methoxyethoxy)-6,7,8,9-tetrahydro-5H-5,8-epiminocyclohepta[c]pyridine-10-carboxamide] | 0.5 to 5
Cc1n[nH]c(C)c1-c1cc(F)c(NC(=O)N2[C@H]3CC[C@@H]2c2n[nH]c(=O)cc2C3)cc1Cl [Compound 149, (6S,9R)-N-(5-Chloro-4-(3,5-dimethyl-1H-pyrazol-4-yl)-2-fluorophenyl)-3-oxo-3,5,6,7,8,9-hexahydro-2H-6,9-epiminocyclohepta[c]pyridazine-10-carboxamide] | 0.5 to 5
